#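 48-hour exposure; five concentrations; linearly interpolated endpoints. The concentration for full growth arrest is given as TGI.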
# Legend:
# Test in all cases: NCI tumour cell line growth inhibition, 48 h
# SF-539 CNS = test system: SF-539 CNS
# MOLT-4 leukemia = test system: MOLT-4 leukemia
# COLO 205 colon = test system: COLO 205 colon
# SR leukemia = test system: SR leukemia
# HL-60(TB) leukemia = test system: HL-60(TB) leukemia
# OVCAR-3 ovarian = test system: OVCAR-3 ovarian
# SF-268 CNS = test system: SF-268 CNS
# IGROV1 ovarian = test system: IGROV1 ovarian
# KM12 colon = test system: KM12 colon
# HS 578T breast = test system: HS 578T breast
# HOP-62 NSCLC = test system: HOP-62 NSCLC
# T-47D breast = test system: T-47D breast
# SF-295 CNS = test system: SF-295 CNS
# LOX IMVI melanoma = test system: LOX IMVI melanoma
# DU-145 prostate = test system: DU-145 prostate
# RPMI-8226 leukemia = test system: RPMI-8226 leukemia
# 786-0 renal = test system: 786-0 renal
# SK-MEL-28 melanoma = test system: SK-MEL-28 melanoma
# SK-OV-3 ovarian = test system: SK-OV-3 ovarian
# HCT-15 colon = test system: HCT-15 colon
# NCI-H23 lung = test system: NCI-H23 lung
# HT29 colon = test system: HT29 colon
# HCT-116 colon = test system: HCT-116 colon
# PC-3 prostate = test system: PC-3 prostate
# ACHN renal = test system: ACHN renal
# SN12C renal = test system: SN12C renal
# UACC-257 melanoma = test system: UACC-257 melanoma
# NCI-H522 lung = test system: NCI-H522 lung
# TK-10 renal = test system: TK-10 renal
# MDA-MB-435 = test system: MDA-MB-435
# OVCAR-8 ovarian = test system: OVCAR-8 ovarian
# NCI-H226 lung = test system: NCI-H226 lung
# K-562 leukemia = test system: K-562 leukemia
# SW-620 colon = test system: SW-620 colon
# A498 renal = test system: A498 renal
# NCI/ADR-RES ovarian = test system: NCI/ADR-RES ovarian
# EKVX NSCLC = test system: EKVX NSCLC
# UACC-62 melanoma = test system: UACC-62 melanoma
# A549 NSCLC = test system: A549 NSCLC
# SNB-75 CNS = test system: SNB-75 CNS
# CCRF-CEM leukemia = test system: CCRF-CEM leukemia
# CAKI-1 renal = test system: CAKI-1 renal
# SK-MEL-5 melanoma = test system: SK-MEL-5 melanoma
# MDA-N = test system: MDA-N
# OVCAR-5 ovarian = test system: OVCAR-5 ovarian
# HCC-2998 colon = test system: HCC-2998 colon
# BT-549 breast = test system: BT-549 breast
# MDA-MB-231 breast = test system: MDA-MB-231 breast
# HOP-92 NSCLC = test system: HOP-92 NSCLC
# OVCAR-4 ovarian = test system: OVCAR-4 ovarian
# NCI-H460 lung = test system: NCI-H460 lung
# MALME-3M melanoma = test system: MALME-3M melanoma
# RXF 393 renal = test system: RXF 393 renal
# SNB-19 CNS = test system: SNB-19 CNS
# SK-MEL-2 melanoma = test system: SK-MEL-2 melanoma
# MCF7 breast = test system: MCF7 breast
# UO-31 renal = test system: UO-31 renal
# M14 melanoma = test system: M14 melanoma
# U251 CNS = test system: U251 CNS
structure (smiles),measurement,setting,value
COC(=O)C1(Cc2ccccc2)Cc2cc3c(cc2C1O)CCC3 (stereo unspecified),TGI,SF-539 CNS,36.7 µM
same,TGI,MOLT-4 leukemia,42.9 µM
same,TGI,COLO 205 colon,48.1 µM
same,TGI,SR leukemia,> 100 µM
same,TGI,HL-60(TB) leukemia,> 100 µM
same,TGI,OVCAR-3 ovarian,31.7 µM
same,TGI,SF-268 CNS,> 100 µM
same,TGI,IGROV1 ovarian,32.1 µM
same,TGI,KM12 colon,48.3 µM
same,TGI,HS 578T breast,34.7 µM
same,TGI,HOP-62 NSCLC,36.9 µM
same,TGI,T-47D breast,62.9 µM
same,TGI,SF-295 CNS,72 µM
same,TGI,LOX IMVI melanoma,34.7 µM
same,TGI,DU-145 prostate,70.8 µM
same,TGI,RPMI-8226 leukemia,54.9 µM
same,TGI,786-0 renal,28.9 µM
same,TGI,SK-MEL-28 melanoma,32.4 µM
same,TGI,SK-OV-3 ovarian,36 µM
same,TGI,HCT-15 colon,> 100 µM
same,TGI,NCI-H23 lung,38.4 µM
same,TGI,HT29 colon,31.6 µM
same,TGI,HCT-116 colon,31.8 µM
same,TGI,PC-3 prostate,37.3 µM
same,TGI,ACHN renal,31.9 µM
same,TGI,SN12C renal,33.3 µM
same,TGI,UACC-257 melanoma,42.9 µM
same,TGI,NCI-H522 lung,34.4 µM
same,TGI,TK-10 renal,67.2 µM
same,TGI,MDA-MB-435,32.2 µM
same,TGI,OVCAR-8 ovarian,65.4 µM
same,TGI,NCI-H226 lung,41.3 µM
same,TGI,K-562 leukemia,67.6 µM
same,TGI,SW-620 colon,30 µM
same,TGI,A498 renal,40.2 µM
same,TGI,NCI/ADR-RES ovarian,76.8 µM
same,TGI,EKVX NSCLC,50.4 µM
same,TGI,UACC-62 melanoma,32.6 µM
same,TGI,A549 NSCLC,59 µM
same,TGI,SNB-75 CNS,> 100 µM
same,TGI,CCRF-CEM leukemia,60.1 µM
same,TGI,CAKI-1 renal,31.3 µM
same,TGI,SK-MEL-5 melanoma,29.3 µM
same,TGI,MDA-N,34.6 µM
same,TGI,OVCAR-5 ovarian,30.4 µM
same,TGI,HCC-2998 colon,60.6 µM
same,TGI,BT-549 breast,31.9 µM
same,TGI,MDA-MB-231 breast,38.1 µM
same,TGI,HOP-92 NSCLC,30.6 µM
same,TGI,OVCAR-4 ovarian,41.7 µM
same,TGI,NCI-H460 lung,> 100 µM
same,TGI,MALME-3M melanoma,30.7 µM
same,TGI,RXF 393 renal,32.5 µM
COC(=O)C(=O)C(C(=O)OC)C(=O)C(=O)Nc1c(Cl)cc([N+](=O)[O-])cc1Cl (stereo unspecified),TGI,SF-539 CNS,> 100 µM
same,TGI,HL-60(TB) leukemia,> 100 µM
same,TGI,OVCAR-3 ovarian,> 100 µM
same,TGI,SF-268 CNS,> 100 µM
same,TGI,IGROV1 ovarian,> 100 µM
same,TGI,KM12 colon,> 100 µM
same,TGI,HS 578T breast,> 100 µM
same,TGI,HOP-62 NSCLC,> 100 µM
same,TGI,T-47D breast,> 100 µM
same,TGI,SF-295 CNS,> 100 µM
same,TGI,LOX IMVI melanoma,> 100 µM
same,TGI,RPMI-8226 leukemia,> 100 µM
same,TGI,786-0 renal,> 100 µM
same,TGI,SK-MEL-28 melanoma,> 100 µM
same,TGI,SK-OV-3 ovarian,> 100 µM
same,TGI,HCT-15 colon,> 100 µM
same,TGI,NCI-H23 lung,> 100 µM
same,TGI,HT29 colon,> 100 µM
same,TGI,HCT-116 colon,> 100 µM
same,TGI,PC-3 prostate,> 100 µM
same,TGI,ACHN renal,> 100 µM
same,TGI,SNB-19 CNS,> 100 µM
same,TGI,SN12C renal,> 100 µM
same,TGI,SK-MEL-2 melanoma,> 100 µM
same,TGI,UACC-257 melanoma,> 100 µM
same,TGI,NCI-H522 lung,> 100 µM
same,TGI,TK-10 renal,> 100 µM
same,TGI,MDA-MB-435,> 100 µM
same,TGI,OVCAR-8 ovarian,> 100 µM
same,TGI,MCF7 breast,> 100 µM
same,TGI,NCI-H226 lung,> 100 µM
same,TGI,UO-31 renal,> 100 µM
same,TGI,K-562 leukemia,> 100 µM
same,TGI,SW-620 colon,> 100 µM
same,TGI,A498 renal,> 100 µM
same,TGI,NCI/ADR-RES ovarian,> 100 µM
same,TGI,EKVX NSCLC,> 100 µM
same,TGI,M14 melanoma,> 100 µM
same,TGI,UACC-62 melanoma,> 100 µM
same,TGI,A549 NSCLC,> 100 µM
same,TGI,SNB-75 CNS,> 100 µM
same,TGI,CAKI-1 renal,> 100 µM
same,TGI,SK-MEL-5 melanoma,> 100 µM
same,TGI,U251 CNS,> 100 µM
same,TGI,MDA-N,> 100 µM
same,TGI,OVCAR-5 ovarian,> 100 µM
same,TGI,HCC-2998 colon,> 100 µM
same,TGI,BT-549 breast,> 100 µM
same,TGI,MDA-MB-231 breast,> 100 µM
same,TGI,HOP-92 NSCLC,> 100 µM
same,TGI,OVCAR-4 ovarian,> 100 µM
same,TGI,NCI-H460 lung,> 100 µM
same,TGI,MALME-3M melanoma,> 100 µM
same,TGI,RXF 393 renal,> 100 µM
CC(=O)[C@@]1(c2ccccc2)CC2(CCN(C)CC2)O[C@H]1C,TGI,SF-539 CNS,> 100 µM
same,TGI,MOLT-4 leukemia,> 100 µM
same,TGI,COLO 205 colon,> 100 µM
same,TGI,OVCAR-3 ovarian,> 100 µM
same,TGI,SF-268 CNS,> 100 µM
same,TGI,IGROV1 ovarian,> 100 µM
same,TGI,KM12 colon,> 100 µM
same,TGI,HOP-62 NSCLC,> 100 µM
same,TGI,T-47D breast,> 100 µM
same,TGI,SF-295 CNS,> 100 µM
same,TGI,LOX IMVI melanoma,> 100 µM
same,TGI,DU-145 prostate,> 100 µM
same,TGI,RPMI-8226 leukemia,> 100 µM
same,TGI,786-0 renal,> 100 µM
same,TGI,SK-MEL-28 melanoma,> 100 µM
same,TGI,SK-OV-3 ovarian,> 100 µM
same,TGI,HCT-15 colon,> 100 µM
same,TGI,NCI-H23 lung,> 100 µM
same,TGI,HT29 colon,> 100 µM
same,TGI,HCT-116 colon,> 100 µM
same,TGI,ACHN renal,> 100 µM
same,TGI,SNB-19 CNS,> 100 µM
same,TGI,SN12C renal,> 100 µM
same,TGI,UACC-257 melanoma,> 100 µM
same,TGI,NCI-H522 lung,> 100 µM
same,TGI,TK-10 renal,> 100 µM
same,TGI,MDA-MB-435,> 100 µM
same,TGI,OVCAR-8 ovarian,> 100 µM
same,TGI,NCI-H226 lung,> 100 µM
same,TGI,UO-31 renal,> 100 µM
same,TGI,K-562 leukemia,> 100 µM
same,TGI,SW-620 colon,> 100 µM
same,TGI,A498 renal,> 100 µM
same,TGI,NCI/ADR-RES ovarian,> 100 µM
same,TGI,EKVX NSCLC,> 100 µM
same,TGI,M14 melanoma,> 100 µM
same,TGI,A549 NSCLC,> 100 µM
same,TGI,SNB-75 CNS,> 100 µM
same,TGI,CAKI-1 renal,> 100 µM
same,TGI,SK-MEL-5 melanoma,> 100 µM
same,TGI,U251 CNS,> 100 µM
same,TGI,MDA-N,> 100 µM
same,TGI,OVCAR-5 ovarian,> 100 µM
same,TGI,BT-549 breast,> 100 µM
same,TGI,MDA-MB-231 breast,> 100 µM
same,TGI,HOP-92 NSCLC,> 100 µM
same,TGI,OVCAR-4 ovarian,> 100 µM
same,TGI,NCI-H460 lung,> 100 µM
same,TGI,MALME-3M melanoma,> 100 µM
same,TGI,RXF 393 renal,> 100 µM
O=C1Nc2ccc(Br)cc2/C1=N/N1C(=O)C(=O)N(C2CCCCC2)C1=S,TGI,SF-539 CNS,18.3 µM
same,TGI,MOLT-4 leukemia,16.5 µM
same,TGI,COLO 205 colon,10.4 µM
same,TGI,SR leukemia,10.6 µM
same,TGI,HL-60(TB) leukemia,7.23 µM
same,TGI,OVCAR-3 ovarian,10.5 µM
same,TGI,SF-268 CNS,30.3 µM
same,TGI,KM12 colon,14.6 µM
same,TGI,HS 578T breast,23.2 µM
same,TGI,HOP-62 NSCLC,14.3 µM
same,TGI,T-47D breast,9.95 µM
same,TGI,SF-295 CNS,15.4 µM
same,TGI,LOX IMVI melanoma,15.7 µM
same,TGI,DU-145 prostate,23.1 µM
same,TGI,RPMI-8226 leukemia,19.9 µM
same,TGI,786-0 renal,18.4 µM
same,TGI,SK-MEL-28 melanoma,19 µM
same,TGI,SK-OV-3 ovarian,21.9 µM
same,TGI,HCT-15 colon,10.4 µM
same,TGI,NCI-H23 lung,20.3 µM
same,TGI,HT29 colon,7.91 µM
same,TGI,HCT-116 colon,10.8 µM
same,TGI,PC-3 prostate,25.9 µM
same,TGI,ACHN renal,16.7 µM
same,TGI,SNB-19 CNS,69.1 µM
same,TGI,SN12C renal,16 µM
same,TGI,SK-MEL-2 melanoma,4.34 µM
same,TGI,UACC-257 melanoma,34.7 µM
same,TGI,TK-10 renal,35 µM
same,TGI,MDA-MB-435,8.16 µM
same,TGI,MCF7 breast,15.6 µM
same,TGI,NCI-H226 lung,23.5 µM
same,TGI,UO-31 renal,4.79 µM
same,TGI,K-562 leukemia,12.6 µM
same,TGI,SW-620 colon,14.8 µM
same,TGI,A498 renal,13.9 µM
same,TGI,NCI/ADR-RES ovarian,13.5 µM
same,TGI,EKVX NSCLC,23.1 µM
same,TGI,M14 melanoma,14.6 µM
same,TGI,UACC-62 melanoma,12.2 µM
same,TGI,A549 NSCLC,19.2 µM
same,TGI,CCRF-CEM leukemia,16.6 µM
same,TGI,CAKI-1 renal,12.3 µM
same,TGI,SK-MEL-5 melanoma,16.7 µM
same,TGI,U251 CNS,15.9 µM
same,TGI,MDA-N,7.56 µM
same,TGI,OVCAR-5 ovarian,28.9 µM
same,TGI,HCC-2998 colon,13.5 µM
same,TGI,MDA-MB-231 breast,25.5 µM
same,TGI,HOP-92 NSCLC,53.7 µM
same,TGI,OVCAR-4 ovarian,22.6 µM
same,TGI,NCI-H460 lung,15.7 µM
same,TGI,MALME-3M melanoma,22.3 µM
same,TGI,RXF 393 renal,21.8 µM
